B1: pp150: HCMV protein pp150 (protein, UniProt P08318 1-1048, looked up)
Large structural …: MSLQFIGLQRRDVVALVNFLRHLTQKPDVDLEAHPKILKKCGEKRLHRRTVLFNELMLWLGYYRELRFHNPDLSSVLEEFEVRCVAVARRGYTYPFGDRGKARDHLAVLDRTEFDTDVRHDAEIVERALVSAVILAKMSVRETLVTAIGQTEPIAFVHLKDTEVQRIEENLEGVRRNMFCVKPLDLNLDRHANTALVNAVNKLVYTGRLIMNVRRSWEELERKCLARIQERCKLLVKELRMCLSFDSNYCRNILKHAVENGDSADTLLELLIEDFDIYVDSFPQSAHTFLGARSPSLEFDDDANLLSLGGGSAFSSVPKKHVPTQPLDGWSWIASPWKGHKPFRFEAHGSLAPAAEAHAARSAAVGYYDEEEKRRERQKRVDDEVVQREKQQLKAWEERQQNLQQRQQQPPPPARKPSASRRLFGSSADEDDDDDDDEKNIFTPIKKPGTSGKGAASGGGVSSIFSGLLSSGSQKPTSGPLNIPQQQQRHAAFSLVSPQVTKASPGRVRRDSAWDVRPLTETRGDLFSGDEDSDSSDGYPPNRQDPRFTDTLVDITDTETSAKPPVTTAYKFEQPTLTFGAGVNVPAGAGAAILTPTPVNPSTAPAPAPTPTFAGTQTPVNGNSPWAPTAPLPGDMNPANWPRERAWALKNPHLAYNPFRMPTTSTASQNTVSTTPRRPSTPRAAVTQTASRDAADEVWALRDQTAESPVEDSEEEDDDSSDTGSVVSLGHTTPSSDYNNDVISPPSQTPEQSTPSRIRKAKLSSPMTTTSTSQKPVLGKRVATPHASARAQTVTSTPVQGRLEKQVSGTPSTVPATLLQPQPASSKTTSSRNVTSGAGTSSASSARQPSASASVLSPTEDDVVSPATSPLSMLSSASPSPAKSAPPSPVKGRGSRVGVPSLKPTLGGKAVVGRPPSVPVSGSAPGRLSGSSRAASTTPTYPAVTTVYPPSSTAKSSVSNAPPVASPSILKPGASAALQSRRSTGTAAVGSPVKSTTGMKTVAFDLSSPQKSGTGPQPGSAGMGGAKTPSDAVQNILQKIEKIKNTEE
B2: XP1: recombinant protein section, amino acid 718-880 of HCMV protein pp150 (protein)
chain: DPRFTDTLVDITDTETSAKPPVTTAYKFEQPTLTFGAGVNVPAGAGAAILTPTPVNPSTAPAPAPTPTFAGTQTPVNGNSPWAPTAPLPGDMNPANWPRERAWALKNPHLAYNPFRMPTTSTASQNTVSTTPRRPSTPRAAVTQTASRDAADEVWALRDQTA

Key:
[1] = system: CMV IgG-positive sera; test: ELISA on peptide-coated microtiter plates with HCMV-positive human sera (localization of epitopes); assay type: binding; settings: plates coated with 2.5 μg peptide per ml, serum 1:2; for Reactivity (individual reactivities of the synthetic pXP1 segments with the assayed group of CMV IgG-positive sera): Table 2; for Reactivity (individual reactivities of particularly reactive peptides with the assayed group of CMV IgG-positive sera): Table 3
Protocol: A microtiter plate with 96 wells was coated with a synthesized peptide. To do this, a solution of 2.5 μg of peptide per ml of carbonate buffer was made up and introduced in 100 μl portions into the wells for the coating. The peptides were adsorbed onto the surfaces at 4° C. overnight and, after removal of the peptide solution, the wells were washed several times with washing buffer (50 mM Tris, pH 7.2, 10 mM EDTA, 0.2% Tween 20). Then individual human serum samples in a 1:2 dilution were introduced and incubated at 37° C. for 1 hour. After another washing step, the conjugate antibody specific for human IgG antibodies or human IgM antibodies and labeled with peroxidase was added and the mixture was incubated at room temperature for 0.5 hour. The reaction was subsequently stopped by adding 0.5 M sulfuric acid and extinction of the individual samples was measured at a wavelength of 450/650 nm in a photometer.
To test the immunogenicity, peptides of various length from the complete amino-acid sequence region from 718 to 880 of the HCMV protein pp150 (Tab. 2 and 3) were synthesized as described in Example 1. Subsequently, as in Example 2, the microtiter plates were coated with the synthesized peptides, and the immunological reactivity was assayed. […] The three immunologically reactive peptides have the following sequences: […]

[2] = system: monoclonal antibody 87-55/02; test: Reaction of monoclonal antibody 87-55/02 with peptide-coated ELISA plate; assay type: binding; settings: immunoblot and ELISA reactivity
From the text: It was concluded from the method for selecting the monoclonal antibody that the identified epitope must have a very important structure which is not even destroyed by denaturation of the complete protein. This monoclonal antibody correspondingly reacts both with the synthesized peptide 2.7 (SEQ ID NO:26) and with the recombinant protein XP1 (SEQ ID NO:33) and the pp150 protein of HCMV.

| Molecule | Reactivity (individual reactivities of the synthetic pXP1 segments with the assayed group of CMV IgG-positive sera) [1] [%] | Reactivity (individual reactivities of particularly reactive peptides with the assayed group of CMV IgG-positive sera) [1] [%] | reaction with monoclonal antibody 87-55/02 [2] |
| --- | --- | --- | --- |
| ala ser arg asp ala ala asp glu val trp ala leu arg asp gln thr ala (ASRDAADEVWALRDQTA) [Peptide 3.2] | 80 | 80 | – |
| ala tyr lys phe glu gln pro thr leu thr phe gly ala gly val asn val pro ala gly ala gly ala ala ile leu thr pro thr pro val asn pro ser thr ala pro ala pro ala pro (AYKFGQPTLTFGAGVNVPAGAGAAILTPTPVNPSTAPAPAP) [Peptide 1.13] | – | 90 | – |
| arg ala trp ala leu lys asn pro his leu ala tyr asn pro phe (RAWALKNPHLAYNPF) [Peptide 2.10] | 80 | 80 | – |
| phe glu gln pro thr leu thr phe gly ala gly val asn val pro ala gly ala gly ala ala ile leu thr pro thr pro val asn pro ser thr ala pro ala pro ala (FEQPTLTFGAGVNVPAGAGAAILTPTPVNPSTAPAPA) [Peptide 1.4] | – | 90 | – |
| pro ala gly ala gly ala ala ile leu thr pro thr pro val asn pro ser thr ala pro ala pro ala pro thr pro thr phe ala gly thr (PAGAGAAILTPTPVNPSTAPAPAPTPTFAGT) [Peptide 1.10] | – | 80 | – |
| pro arg ala ala val thr gln thr ala ser arg asp ala ala (PRAAVTQTASRDAA) [Peptide 3.1] | 60 | 60 | – |
| B1 | – | – | reacts |
| B2 | – | – | reacts |

Reference: US6143493A, “HCMV-specific peptides, agents therefor and the use thereof” (Dade Behring Marburg GmbH, priority 1991, dated 2000)
